# Source: PMC6381168, “Anoctamin-4 is a bona fide Ca^2+-dependent non-selective cation channel” (Scientific Reports, 2019)
# Target: T1, Ano4 (Mus musculus, UniProt Q8C5H1)
# T1 construct: full length, 955 residues, C-terminal Myc tag (pcDNA3), transiently expressed in HEK293 cells
# T1 sequence (Q8C5H1 1-955): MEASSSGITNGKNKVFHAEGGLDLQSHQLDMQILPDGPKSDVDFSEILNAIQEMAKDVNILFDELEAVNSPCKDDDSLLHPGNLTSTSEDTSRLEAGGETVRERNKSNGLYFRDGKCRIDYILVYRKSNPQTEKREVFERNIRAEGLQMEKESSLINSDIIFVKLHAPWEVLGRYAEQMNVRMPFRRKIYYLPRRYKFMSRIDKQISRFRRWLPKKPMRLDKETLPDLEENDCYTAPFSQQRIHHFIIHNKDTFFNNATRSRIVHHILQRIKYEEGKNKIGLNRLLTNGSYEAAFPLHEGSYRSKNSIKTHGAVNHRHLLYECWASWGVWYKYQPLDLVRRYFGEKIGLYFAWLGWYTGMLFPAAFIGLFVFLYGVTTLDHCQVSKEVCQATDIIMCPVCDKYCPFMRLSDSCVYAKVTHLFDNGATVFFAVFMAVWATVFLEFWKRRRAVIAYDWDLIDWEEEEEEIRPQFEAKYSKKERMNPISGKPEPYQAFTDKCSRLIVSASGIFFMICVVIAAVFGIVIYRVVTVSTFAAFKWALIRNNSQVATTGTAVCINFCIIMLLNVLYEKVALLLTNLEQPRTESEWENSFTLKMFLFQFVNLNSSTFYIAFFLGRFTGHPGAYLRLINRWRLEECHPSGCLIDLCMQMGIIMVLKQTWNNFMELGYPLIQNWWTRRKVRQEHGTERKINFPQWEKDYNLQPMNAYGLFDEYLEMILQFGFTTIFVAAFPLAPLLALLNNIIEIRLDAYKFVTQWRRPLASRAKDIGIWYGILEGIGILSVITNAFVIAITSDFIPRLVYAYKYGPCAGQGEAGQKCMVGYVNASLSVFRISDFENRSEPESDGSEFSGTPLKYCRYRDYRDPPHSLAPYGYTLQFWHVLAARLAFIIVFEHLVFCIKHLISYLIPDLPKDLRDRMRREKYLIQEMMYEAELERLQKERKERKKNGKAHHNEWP
# Experiment: whole-cell patch clamp, block of ionomycin-activated current
# Assay type: cell-based
# Conditions: 100 uM niflumic acid; extracellular Ringer with 1 uM ionomycin, pH 7.2, room temperature; channel blocker
compound,measurement,value
O=C(O)c1cccnc1Nc1cccc(C(F)(F)F)c1 [niflumic acid],"whole-cell patch clamp, block of ionomycin-activated current",The Ano4-dependent current was blocked by the application of the fenamate niflumic acid
